{"source": "patent US20060154904A1", "about": "“Betulinol derivatives as anti-HIV agents” (Cornell Research Foundation, Inc., priority 2004, published 2006)", "key": {"[1]": {"tested_on": "Human T-B hybridoma cell line 174XCEM", "test": "cell viability by trypan blue dye exclusion", "type": "cell-based", "conditions": "for effect on total cell number or cell viability: trypan blue at four days and seven days; for cell toxicity: doses of 0.5, 1 .5, and 2 μg/ml", "excerpt": "Dimethyl sulfoxide (“DMSO”) buffer was used as “no virus” control."}, "HIV-1 IIIB isolate": {"tested_on": "HIV-1 IIIB isolate", "test": "HIV-1 inhibitory effect, p24 antigen capture ELISA in acutely infected 174XCEM cells", "type": "cell-based", "conditions": "for anti-HIV-1 activity (p24 OD, FIG. 6) / inhibition of HIV infection (FIG. 7): 1 μg/ml; for anti-HIV-1 activity (p24 OD, FIG. 6): 4 days, compared with other betulinol derivatives; for dose-related anti-HIV effect (FIG. 8): doses of 0.5, 1 .5, and 2 μg/ml"}, "AZT-resistant HIV strain": {"tested_on": "AZT-resistant HIV strain", "test": "anti-HIV activity against AZT-resistant patient isolates in MT-2 cells", "type": "cell-based", "excerpt": "These isolates were used to infect MT-2 cells in vitro."}, "[2]": {"test": "solubility in DMSO diluted with culture medium, GC against standard curve", "type": "physicochemical", "protocol": "The residue was dissolved in chloroform analyzed on GC.\nEthyl ether was then evaporated."}, "[3]": {"test": "tolerability of solubilized drug in mice with prostate cancer cell xenografts", "type": "in vivo", "conditions": "final concentration 22% ethanol and 2×10^−3 mol per liter of betulonic acid"}, "another HIV-1 isolate": {"tested_on": "another HIV-1 isolate", "test": "effect on 174XCEM cells chronically infected with another HIV-1 isolate", "type": "cell-based", "conditions": "single dose 1 μg/ml", "protocol": "Agents were also evaluated for an effect on 174XCEM cells chronically infected with another HIV-1 isolate."}, "HIV": {"tested_on": "HIV", "conditions": "Sun et al., J. Med. Chem. 41:4648-4657 (1998); cited from earlier work"}, "cells": {"tested_on": "cells", "conditions": "cited from earlier work"}, "[4]": {"test": "solubilization in PBS containing human γ-globulin, human albumin and ethanol", "type": "physicochemical", "conditions": "1 × 10^−3 mol/L"}, "[5]": {"test": "solubility in human serum", "type": "physicochemical", "conditions": "1.34 mg in 31 μL ethanol and 700 μL human serum"}, "[6]": {"conditions": "culture medium containing 20% DMSO, calculated from amount and volume"}}, "note": "Read-outs that look alike come from different tables or passages of the source."}
{"smiles": "C=C(C)[C@@H]1CC[C@]2(CO)CC[C@]3(C)[C@H](CC[C@@H]4[C@@]5(C)CC[C@H](OC(C)=O)C(C)(C)[C@@H]5CC[C@]43C)[C@@H]12", "note": "[3-acetoxy betulin]", "values": [{"measurement": "effect on total cell number or cell viability", "setting": "[1]", "result": "no effect"}, {"measurement": "anti-HIV-1 activity (p24 OD, FIG. 6)", "setting": "HIV-1 IIIB isolate", "result": "superior"}]}
{"smiles": "C=C(C)[C@@H]1CC[C@]2(COC(C)=O)CC[C@]3(C)[C@H](CC[C@@H]4[C@@]5(C)CC[C@H](O)C(C)(C)[C@@H]5CC[C@]43C)[C@@H]12", "note": "[28-acetoxy betulin]", "values": [{"measurement": "effect on total cell number or cell viability", "setting": "[1]", "result": "no effect"}, {"measurement": "anti-HIV-1 activity (p24 OD, FIG. 6)", "setting": "HIV-1 IIIB isolate", "result": "superior"}, {"measurement": "dose-related anti-HIV-1 activity (FIG. 10)", "setting": "HIV-1 IIIB isolate; doses 0.5, 1, 1.5, and 2 μg/ml", "result": "comparable anti-HIV-1 activity"}]}
{"smiles": "Cc1cn([C@H]2C[C@H](N=[N+]=[N-])[C@@H](CO)O2)c(=O)[nH]c1=O", "note": "[AZT, 3′-azido-3′-deoxythymidine, reference compound]", "values": [{"measurement": "inhibition in the HIV infection", "setting": "AZT-resistant HIV strain; day 8", "result": "ineffective"}]}
{"smiles": "C=C(C)C1CCC2(C(=O)NCCCCC(NC(=O)C(CCCCNC(=O)C34CCC(C(=C)C)C3[C@@H]3CC[C@H]5[C@]6(C)CCC(=O)C(C)(C)[C@H]6CC[C@]5(C)[C@@]3(C)CC4)NC(=O)OC(C)(C)C)C(=O)O)CC[C@]3(C)[C@H](CC[C@@H]4[C@@]5(C)CCC(=O)C(C)(C)[C@@H]5CC[C@]43C)C12", "note": "(stereo partly drawn) [Boc-Dimer]", "values": [{"measurement": "Concentration of drug (mg/mL)", "setting": "[2]; [6]", "result": 0.6, "unit": "mg/mL"}, {"measurement": "Concentration of drug (mol/L)", "setting": "[2]; [6]", "result": 0.0005, "unit": "mol/L"}]}
{"smiles": "C=C(C)C1CCC2(C(=O)NCCCCC(NC(=O)OC(C)(C)C)C(=O)O)CC[C@]3(C)[C@H](CC[C@@H]4[C@@]5(C)CCC(=O)C(C)(C)[C@@H]5CC[C@]43C)C12", "note": "(stereo partly drawn) [Boc-Monomer]", "values": [{"measurement": "tolerability", "setting": "[3]", "result": "well tolerated"}, {"measurement": "Concentration of drug (mg/mL)", "setting": "[2]", "result": 0.7, "unit": "mg/mL"}]}
{"smiles": "C=C(C)[C@@H]1CC[C@]2(COC(C)=O)CC[C@]3(C)[C@H](CC[C@@H]4[C@@]5(C)CC[C@H](OC(C)=O)C(C)(C)[C@@H]5CC[C@]43C)[C@@H]12", "note": "[betulin diacetate]", "values": [{"measurement": "cell toxicity", "setting": "[1]", "result": "without cell toxicity"}, {"measurement": "inhibition of HIV infection (FIG. 7)", "setting": "HIV-1 IIIB isolate", "result": 57, "unit": "%"}, {"measurement": "dose-related anti-HIV effect (FIG. 8)", "setting": "HIV-1 IIIB isolate", "result": "Progressive increases in anti-HIV effect"}, {"measurement": "inhibition in chronically infected cells", "setting": "another HIV-1 isolate", "result": 20, "unit": "%"}, {"measurement": "therapeutic index", "setting": "HIV", "result": "low therapeutic index"}]}
{"smiles": "C=C(C)C1CCC2(COC)CCC3(C)C(CCC4C5(C)CCC(OC)C(C)(C)C5CCC43C)C12", "note": "(stereo not drawn) [betulin dimethyl ether]", "values": [{"measurement": "effect on total cell number or cell viability", "setting": "[1]", "result": "no effect"}, {"measurement": "anti-HIV-1 activity (p24 OD, FIG. 6)", "setting": "HIV-1 IIIB isolate", "result": "superior"}]}
{"smiles": "C=C(C)C1CCC2(CO)CC[C@]3(C)[C@H](CC[C@@H]4[C@@]5(C)CCC(O)C(C)(C)[C@@H]5CC[C@]43C)C12", "note": "(stereo partly drawn) [betulinol, lup-20(29)-ene-3β, 28-diol]", "values": [{"measurement": "inhibition of HIV infection (FIG. 7)", "setting": "HIV-1 IIIB isolate", "result": "no effect"}, {"measurement": "dose-related anti-HIV effect (FIG. 9)", "setting": "HIV-1 IIIB isolate; doses 1.3, 1.6, and 2 μg/ml", "result": "increasing anti-HIV effect"}, {"measurement": "inhibition in chronically infected cells", "setting": "another HIV-1 isolate", "result": "minimal effect"}]}
{"smiles": "C=C(C)[C@@H]1CC[C@]2(C=O)CC[C@]3(C)[C@H](CC[C@@H]4[C@@]5(C)CCC(=O)C(C)(C)[C@@H]5CC[C@]43C)[C@@H]12", "note": "[betulone aldehyde]", "values": [{"measurement": "cell toxicity", "setting": "[1]", "result": "without cell toxicity"}, {"measurement": "inhibition of HIV infection (FIG. 7)", "setting": "HIV-1 IIIB isolate", "result": 37, "unit": "%"}, {"measurement": "dose-related anti-HIV effect (FIG. 8)", "setting": "HIV-1 IIIB isolate", "result": "Progressive increases in anti-HIV effect"}, {"measurement": "inhibition in chronically infected cells", "setting": "another HIV-1 isolate", "result": "minimal effect"}]}
{"smiles": "C=C(C)C1CCC2(C(=O)O)CC[C@]3(C)[C@H](CC[C@@H]4[C@@]5(C)CCC(=O)C(C)(C)[C@@H]5CC[C@]43C)C12", "note": "(stereo partly drawn) [betulonic acid]", "values": [{"measurement": "inhibition in the HIV infection", "setting": "AZT-resistant HIV strain; day 5", "result": 56, "unit": "%"}, {"measurement": "inhibition in the HIV infection", "setting": "AZT-resistant HIV strain; day 8", "result": 44, "unit": "%"}, {"measurement": "tolerability", "setting": "[3]", "result": "well tolerated"}, {"measurement": "amount of betulonic acid dissolved", "setting": "[2]; out of 3 mg, 1% DMSO in culture medium containing 10% FBS, nominal 0.5 mg/mL", "result": 0.4, "unit": "mg"}, {"measurement": "cytotoxicity", "setting": "cells", "result": "cytotoxic"}, {"measurement": "Observation", "setting": "[4]; γ-globulin in PBS 0 mL, albumin in PBS 2.50 mL, ethanol 280 μL", "result": "Complete"}, {"measurement": "Observation", "setting": "[4]; γ-globulin in PBS 0.32 mL, albumin in PBS 2.85 mL, ethanol 352 μL", "result": "Clear"}, {"measurement": "Observation", "setting": "[4]; γ-globulin in PBS 0.69 mL, albumin in PBS 2.07 mL, ethanol 308 μL", "result": "Almost Clear"}, {"measurement": "Observation", "setting": "[4]; γ-globulin in PBS 1.48 mL, albumin in PBS 0.49 mL, ethanol 220 μL", "result": "Cloudy"}, {"measurement": "Observation", "setting": "[4]; γ-globulin in PBS 1.48 mL, albumin in PBS 1.48 mL, ethanol 330 μL", "result": "Little Cloudy"}, {"measurement": "Observation", "setting": "[4]; γ-globulin in PBS 2.50 mL, albumin in PBS 0 mL, ethanol 280 μL", "result": "Suspension"}, {"measurement": "Observation", "setting": "[5]", "result": "Clear Solution"}]}
